Experimental data published in patent US20070065805A1, “Cell migration assay” (GE Healthcare Bio-Sciences Corp., priority 2005, published 2007).
Entries after “also recorded” stand apart in the source; their conditions may differ.

Key:
[1] = test system: neutrophil TEM; experiment: Neutrophil transendothelial migration (TEM) assay, 96-well collagen gel/HUVEC monolayer; assay type: cell-based, human; conditions: for Inhibition of neutrophil TEM: neutrophil pre-treated with inhibitor (1, 10-phenathronoline 12-1000 μM) for 0.5 hour, inhibitor present throughout the TEM assay, migrated cells counted at Z: 60 μm (FIG. 10)
Protocol: (§1) A 96-well plate (ViewPlate™, PerkinElmer Life and Analytical Sciences) was set on ice and 40 μl of gel (2.5 mg/ml) was dispensed into each well using stepper repeat pipette (500 or 1000 tip). The plate was spun at 1,500 rpm for 2 min at 4° C. The gel was solidified at 37° C. in a CO2-free incubator to establish a thick layer (200 μm) of collagen gel onto a well of 96-well plate. The following TEM assays were performed using collagen gel prepared in this manner.
The layer of collagen gel in each well was coated with 200 μl of 1 μg/ml human fibronectin (BD Biosciences) in serum-free EGM-2 medium for 1 hour at room temperature. After removal of the fibronectin containing-medium, HUVEC cells (CAMBREX) were seeded onto the gel and cultured in the EGM-2 medium for 3 days, at 37° C., and at a concentration of 40,000 cells/well. The cells were chosen from early passage (3rd to 4th), 70-80% confluent HUVEC cell cultures. The day before the assay, the HUVEC culture medium was replaced with either fresh EGM-2 medium alone, or the fresh EGM-2 medium containing 10 ng/ml IL-1 β (or TNF-α, or other chemoattractants). The mixture was incubated overnight to stimulate TEM.
Neutrophil or peripheral blood mononuclear cells (PBMC) were freshly isolated from blood Buffy coat. Briefly, RBC were removed using dextran sedimentation. Then PBMC were isolated by Ficoll-Hypaque centrifugation. Neutrophils were purified by hypotonic lysis of remaining RBC in the pellet of Ficoll-Hypaque centrifugation. The cells were labelled with CellTracker™ Green, by incubation in 0.5 to 1 μm dye in RPMI for 45 min at 37° C. The dye containing RPMI was removed and the cells washed once with serum-free RPMI medium. The cells were re-suspended in RPMI containing 0.2% HAS (assay medium) at 2.5×10^6 cells/ml.
On the assay day, the culture medium for the HUVEC cell culture was removed and the HUVEC monolayer washed 2 times with PBS and once with assay medium (0.2% of HAS in RPMI). 500,000 (200 μl) neutrophil or PBMC, which were CellTracker™ Green labelled, were placed on top of the HUVEC monolayer in each well. The assay was incubated further at 37° C. The length of time for the incubation is primary cell type dependent. For neutrophil, incubation time is within 2 hours and for PBMC, from 6 to 10 hours may be required.
(§2) After the required incubation time, images of neutrophil/PBMC cells which had migrated below the HUVEC layer were acquired. Often, it is sufficient to acquire images at a single Z position and quantify the number of migrated cells in the gel at targeted Z position. As an example, images at the 120 μm Z plane were quantified using the Z-slicing feature of IN Cell Analyzer 3000 (GE Healthcare). Images were analysed using the Object Intensity analysis module. The experiments were repeated multiple times, such that each data point—in the Figures—represents mean plus/minus standard deviation of 6 replicate wells, one Z plane of image/well.
Prior to the TEM assay, neutrophil were pre-treated with 1, 10-phenathronoline, a MMP-9 inhibitor (12-1000 μM) for 0.5 hour. The inhibitor was continuously present throughout the TEM assay. […] Each data point in FIG. 10 represents mean plus/minus SD of 6 replicate wells, one image/well at Z: 60 μm.

[2] = test system: PBMC TEM; experiment: PBMC transendothelial migration (TEM) assay, 96-well collagen gel/HUVEC monolayer; assay type: cell-based, human; conditions: HUVEC incubated overnight with 10 ng/ml IL-1 β
Protocol: as §1
The layer of collagen gel in each well was coated with 200 μl of 1 μg/ml human fibronectin (BD Biosciences) in serum-free EGM-2 medium for 1 hour at room temperature. After removal of the fibronectin containing-medium, HUVEC cells (CAMBREX) were seeded onto the gel and cultured in the EGM-2 medium for 3 days, at 37° C., and at a concentration of 40,000 cells/well. The cells were chosen from early passage (3rd to 4th), 70-80% confluent HUVEC cell cultures. […]
as §2, with “The experiments were repeated multiple times, such that each data point—in the Figures—represents mean plus/minus standard deviation of 6 replicate wells, one Z plane of image/well.” left out

Molecule: c1cnc2c(c1)ccc1cccnc12 [1, 10-phenathronoline, reference compound]
- Inhibition of neutrophil TEM [1]: inhibits neutrophil TEM; also recorded: Inhibition of neutrophil TEM

Molecule: C[C@H]1c2cccc(O)c2C(O)=C2C(=O)[C@]3(O)C(O)=C(C(N)=O)C(=O)[C@@H](N(C)C)[C@@H]3[C@@H](O)[C@@H]21 [doxycyclin, reference compound]
- Inhibition of neutrophil TEM [1]: showed to inhibit TEM

Molecule: Interleukin-1-beta [IL-1β]
- Stimulation of neutrophil TEM ([1]; HUVEC incubated overnight with 10 ng/ml IL-1 β): potentiate transendothelial migration of both cell types
- Time for neutrophil TEM to reach a significant signal to noise ratio (IL-1β stimulated vs. non-stimulated) ([1]; migrated cells quantified at Z: 120 μm, FIG. 7): 0.5 to 2 h
- Stimulation of PBMC TEM [2]: potentiate transendothelial migration of both cell types

Molecule: Interleukin-8 [IL-8]
- Effect of IL-8 soaking on neutrophil TEM ([1]; collagen gel pre-soaked with culture medium containing IL-8 at 200 ng/ml for 4 hours): increase of neutrophil TEM; also recorded: generates a TEM effect similar to that of IL-1 β activation of HUVEC
